Like-named read-outs stand apart in the source and are kept apart here.
Tests used:
[1] = target: T1, reuptake of norepinephrine (NA) by brain synaptosomes (Rattus norvegicus, UniProt Q63380); test: [3H]NA reuptake by rat brain synaptosomes; type: biochemical; conditions: for inhibiting activity on the reuptake of NA (in words): concentration 10 μmol/L, effectiveness equivalent to venlafaxine and DOV21947; for Inhibition of reuptake of NA / inhibition at 100 µM: rat prefrontal cortex synaptosomes, 0.1 mmol/L for control drug and drug to be detected
T1 construct: taking prefrontal cortex for the [^3H]5-HT and [^3H]NA reuptake experiment; from tissue; host or cells: rat brain prefrontal cortex synaptosomes
T1 sequence (Q63380 1-617): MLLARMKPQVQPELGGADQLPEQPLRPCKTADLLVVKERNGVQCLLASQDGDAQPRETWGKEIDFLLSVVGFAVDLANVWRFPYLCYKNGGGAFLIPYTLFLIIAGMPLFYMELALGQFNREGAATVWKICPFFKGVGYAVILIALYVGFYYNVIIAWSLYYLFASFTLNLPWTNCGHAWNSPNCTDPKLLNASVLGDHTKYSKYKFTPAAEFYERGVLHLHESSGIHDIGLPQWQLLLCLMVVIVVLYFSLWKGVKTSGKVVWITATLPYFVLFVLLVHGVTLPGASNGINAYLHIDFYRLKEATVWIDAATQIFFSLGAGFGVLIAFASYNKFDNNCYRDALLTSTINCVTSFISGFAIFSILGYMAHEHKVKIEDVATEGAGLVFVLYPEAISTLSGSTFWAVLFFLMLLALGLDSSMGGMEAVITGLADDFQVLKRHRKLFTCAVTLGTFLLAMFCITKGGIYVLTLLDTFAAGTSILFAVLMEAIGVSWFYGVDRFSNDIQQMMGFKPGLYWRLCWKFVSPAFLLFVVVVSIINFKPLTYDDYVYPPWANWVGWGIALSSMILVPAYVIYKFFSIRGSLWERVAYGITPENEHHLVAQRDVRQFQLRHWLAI

[2] = target: T2, reuptake of dopamine (DA) by brain synaptosomes (Rattus norvegicus, UniProt P23977); test: [3H]DA reuptake by rat brain synaptosomes; type: biochemical; conditions: for inhibiting activity on the reuptake of DA (in words): concentration 10 μmol/L, effectiveness equivalent to venlafaxine and DOV21947; for Inhibition of reuptake of DA / inhibition at 100 µM: rat striatum synaptosomes, 0.1 mmol/L for control drug and drug to be detected
T2 construct: taking striatum for the [^3H]DA reuptake experiment; from tissue; host or cells: rat brain striatum synaptosomes
T2 sequence (P23977 whole entry): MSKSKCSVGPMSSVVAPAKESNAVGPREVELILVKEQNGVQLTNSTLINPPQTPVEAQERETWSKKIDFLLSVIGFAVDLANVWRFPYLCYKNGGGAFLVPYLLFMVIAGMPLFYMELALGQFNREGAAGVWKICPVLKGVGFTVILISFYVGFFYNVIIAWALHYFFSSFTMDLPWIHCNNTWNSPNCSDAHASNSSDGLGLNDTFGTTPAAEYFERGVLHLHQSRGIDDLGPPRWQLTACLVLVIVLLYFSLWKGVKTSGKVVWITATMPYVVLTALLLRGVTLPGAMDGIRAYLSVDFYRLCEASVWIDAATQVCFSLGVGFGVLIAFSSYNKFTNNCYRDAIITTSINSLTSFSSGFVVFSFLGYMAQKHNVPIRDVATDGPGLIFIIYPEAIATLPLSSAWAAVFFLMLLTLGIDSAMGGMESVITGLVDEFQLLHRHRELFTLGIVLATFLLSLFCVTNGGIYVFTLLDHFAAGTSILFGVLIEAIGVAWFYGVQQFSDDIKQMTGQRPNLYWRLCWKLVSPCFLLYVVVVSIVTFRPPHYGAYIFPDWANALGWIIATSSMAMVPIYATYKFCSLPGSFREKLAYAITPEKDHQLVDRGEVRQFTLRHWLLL

[3] = target: T3, reuptake of 5-serotonin (5-HT) by brain synaptosomes (Rattus norvegicus, UniProt P31652); test: [3H]5-HT reuptake by rat brain synaptosomes; type: biochemical; conditions: for inhibiting activity on the reuptake of 5-HT (in words): concentration 10 μmol/L, effectiveness equivalent to venlafaxine and DOV21947; for Inhibition of reuptake of 5-HT: rat prefrontal cortex synaptosomes, 0.1 mmol/L for control drug and drug to be detected
T3 construct: taking prefrontal cortex for the [^3H]5-HT and [^3H]NA reuptake experiment; from tissue; host or cells: rat brain prefrontal cortex synaptosomes
T3 sequence (P31652 whole entry): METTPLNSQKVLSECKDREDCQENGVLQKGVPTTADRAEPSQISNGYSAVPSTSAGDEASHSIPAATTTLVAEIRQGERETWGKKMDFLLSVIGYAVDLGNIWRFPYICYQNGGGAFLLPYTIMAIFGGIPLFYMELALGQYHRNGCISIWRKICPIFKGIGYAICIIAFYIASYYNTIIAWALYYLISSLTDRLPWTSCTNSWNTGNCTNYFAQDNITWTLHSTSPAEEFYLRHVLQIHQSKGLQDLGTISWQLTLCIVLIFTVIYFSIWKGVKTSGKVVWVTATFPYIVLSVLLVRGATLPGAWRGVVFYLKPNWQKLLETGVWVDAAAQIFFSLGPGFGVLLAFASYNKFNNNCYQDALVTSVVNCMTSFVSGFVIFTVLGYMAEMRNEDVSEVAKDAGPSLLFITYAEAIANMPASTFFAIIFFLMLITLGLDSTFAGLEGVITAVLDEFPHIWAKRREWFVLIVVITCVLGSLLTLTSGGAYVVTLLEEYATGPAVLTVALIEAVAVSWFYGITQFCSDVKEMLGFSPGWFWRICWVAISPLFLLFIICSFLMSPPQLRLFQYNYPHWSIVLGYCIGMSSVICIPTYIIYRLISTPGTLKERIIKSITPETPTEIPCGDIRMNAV

[4] = system: mice; test: forced swimming test of mice (immobility); type: in vivo; conditions: for Immobility time: mice, swimming test
[5] = system: mice; test: Acute toxicity, single dosage LD50 to mice; type: in vivo; conditions: Bliss statistics, preliminary screening
[6] = system: Salmonella typhimurium histidine auxotroph mutant TA97, TA98, TA100 and TA102; type: cell-based
Excerpt: Strains: Salmonella typhimurium histidine auxotroph mutant TA97, TA98, TA100 and TA102.
The experimental method: the method reported in Maron D M et al: (1983) Mutay Res. 113, 173-216 is used;
The experimental result: the experiment comprises two parts: −S9 and +S9.

Structure (SMILES)	inhibiting activity on the reuptake of NA (in words) [1]	Inhibition of reuptake of NA [1]	inhibiting activity on the reuptake of DA (in words) [2]	Inhibition of reuptake of DA [2]	inhibiting activity on the reuptake of 5-HT (in words) [3]	Inhibition of reuptake of 5-HT [3]	other results
COc1ccc2cc([C@@H](O)[C@H](C)N3CCC(Cc4ccccc4)CC3)ccc2c1Cl [Compound V-2, Erythro-4-benzyl-N-[1-methyl-2-hydroxy-2-(5-chloro-6-methoxynaphthalene-2-yl)]ethylpiperidine]	stronger inhibiting activity	65.3 ± 6.7	stronger inhibiting activity	93.1 ± 2.0	stronger inhibiting activity	105.6 ± 0.9	–
COc1ccc2cc([C@@H](O)[C@H](C)N3CCC(O)(Cc4ccccc4)CC3)ccc2c1Cl [Compound V-14, Erythro-4-benzyl-4-hydroxy-N-[1-methyl-2-hydroxy-2-(5-chloro-6-methoxynaphthalene-2-yl)]ethylpiperidine]	stronger inhibiting activity	93.0 ± 20.8	stronger inhibiting activity	91.0 ± 0.9	stronger inhibiting activity	94.9 ± 1.2	in vivo anti-depression activity (in words) ([4]; forced swimming test of mice, effect similar to venlafaxine): strong in vivo anti-depression activity; Immobility time ([4]; dosage 6.9 mg/kg): 52.8 ± 32.0 s; Immobility time ([4]; dosage 13.8 mg/kg): 82.1 ± 62.0 s; Immobility time ([4]; dosage 27.6 mg/kg): 74.9 ± 37.8 s; LD50 [5]: 1150 mg/kg; bacteriostatic effect ([6]; 5000 μg/dish, TA97, S9 added testing system): have bacteriostatic effect; bacteriostatic effect ([6]; 5000 μg/dish, non-S9 testing system): have bacteriostatic effect; Ames test, reverse mutation ([6]; all tested dosages, with or without S9): negative; bacteriostatic effect ([6]; other dosages, all strains): do nut have a bacteriostatic effect
COc1ccc2cc(C(O)CCN3CCC(=Cc4ccccc4)CC3)ccc2c1Cl (centres unmarked) [Compound V-32, 4-benzyl-methylene-N-[3-hydroxy-3-(5-chloro-6-methoxynaphthalene-2-yl)]propylpiperidine]	stronger inhibiting activity	36.6 ± 19.1	stronger inhibiting activity	92.4 ± 7.6	stronger inhibiting activity	104.4 ± 2.0	–
COc1ccc2cc(C(O)C(C)N3CCC(=Cc4ccc(F)cc4)CC3)ccc2c1Cl (centres unmarked) [Compound V-34, 4-(4-fluorobenzyl)-methylene-N-[1-methyl-2-hydroxy-2-(5-chloro-6-methoxynaphthalene-2-yl)]ethyl-piperidine]	–	18.8 ± 13.4	–	99.1 ± 4.3	–	106.3 ± 2.3	–
COc1ccc2cc(C(O)C(C)N3CCC(=Cc4ccccc4)CC3)ccc2c1Cl (centres unmarked) [Compound V-38, 4-benzyl-methylene-N-[1-methyl-2-hydroxy-2-(5-chloro-6-methoxynaphthalene-2-yl)]ethyl-piperidine]	stronger inhibiting activity	87.4 ± 5.5	stronger inhibiting activity	99.6 ± 2.9	stronger inhibiting activity	107.0 ± 0.5	–
COc1ccc2cc([C@@H](O)[C@H](C)N3CC=C(Cc4ccccc4)CC3)ccc2c1Cl [Compound V-40, Erythro-4-benzyl-N-[1-methyl-2-hydroxy-2-(5-chloro-6-methoxynaphthalene-2-yl)]ethyl-1,2,3,6-tetrahydropyridine]	–	62.6 ± 15.3	–	50.7 ± 21.8	–	99.5 ± 1.6	–
COc1ccc2cc([C@@H](O)[C@H](C)N3CCC(OCc4ccccc4)CC3)ccc2c1Cl [Compound V-50, Erythro-4-benzyloxy-N-[1-methyl-2-hydroxy-2-(5-chloro-6-methoxynaphthalene-2-yl)]ethylpiperidine]	–	41.8 ± 7.3	–	23.1 ± 16.8	–	91.8 ± 1.6	–
Clc1ccc([C@]23CNC[C@H]2C3)cc1Cl [DOV 21947, reference compound]	–	–	–	–	–	–	inhibition at 100 µM [1]: 61.9 ± 6%; inhibition at 100 µM [2]: 104 ± 4.2%; inhibition at 100 µM ([3]; read-out: Inhibition of reuptake of 5-HT): 109 ± 3.8%
COc1ccc(C(CN(C)C)C2(O)CCCCC2)cc1 (centres unmarked) [venlafaxine, reference compound]	–	–	–	–	–	–	inhibition at 100 µM [1]: 46.4 ± 4.6%; Immobility time ([4]; dosage 4.56 mg/kg): 57.1 ± 37.8 s; Immobility time ([4]; dosage 9.12 mg/kg): 77.4 ± 47.2 s; Immobility time ([4]; dosage 18.24 mg/kg): 80.8 ± 46.8 s; inhibition at 100 µM [2]: 48.6 ± 4.1%

From patent publication US8618133B2, “Aralkyl alcohol pyridine derivative compounds and the use thereof as medicaments for treating depression” (priority 2008, dated 2013)
